# Experimental data published in US12240857B2 (priority 2017, dated 2025).
# Where two headings read alike, the source gives them in different places.
# Legend:
# [1] = test system: EBOV mucin-domain-deleted glycoprotein pseudotyped VSV; experiment: microbe, parasite or virus in culture; format: cell-based, Zaire ebolavirus
# [2] = test system: Vero cells; settings: for % cell viability at 5 μM / % cell viability at 3 μM / % cell viability at 10 μM: African green monkey
# [3] = test system: parent VSV virus expressing the native VSV glycoprotein; experiment: microbe, parasite or virus in culture; format: cell-based; settings: Vesicular stomatitis virus, Vero; for inhibition at 5 µM: read-out: VSV % inh. at 5 μM; for EC50: read-out: EC50 Pseudotype Assays VSV
# [4] = test system: BDBV mucin-domain-deleted glycoprotein pseudotyped VSV; experiment: microbe, parasite or virus in culture; format: cell-based, Bundibugyo ebolavirus
# [5] = in vitro; settings: African green monkey
# [6] = test system: wild-type Ebola Zaire; experiment: microbe, parasite or virus in culture; settings: Zaire ebolavirus, HeLa, read-out: Ebola Zaire EC50
# [7] = test system: wild-type Ebola Zaire
# [8] = test system: wild-type Sudan Gulu
# [9] = test system: wild-type Sudan Gulu; experiment: microbe, parasite or virus in culture; settings: Sudan ebolavirus, HeLa, read-out: Sudan Gulu EC50
# [10] = test system: full-length Marburgvirus (MARV) GP pseudotyped VSV; experiment: microbe, parasite or virus in culture; format: cell-based, Marburg marburgvirus; settings: for EC50: Orthomarburgvirus, read-out: EC50 Pseudotype Assays MARV
# [11] = test system: full-length Ebola Zaire GP pseudotyped VSV (EBOV_FL); experiment: microbe, parasite or virus in culture; format: cell-based; settings: Zaire ebolavirus, read-out: EC50 Pseudotype Assays EBOV_FL
# [12] = test system: full-length LASV glycoprotein pseudotyped VSV; experiment: microbe, parasite or virus in culture; format: cell-based, Lassa virus; settings: Vesicular stomatitis virus, read-out: EC50 Pseudotype Assays LASV
# [13] = Zaire ebolavirus, Vero, 24 h, read-out: EC50 EBOV
# [14] = Vesicular stomatitis virus, Vero, 24 h, read-out: EC50 BDBV
# [15] = Zaire ebolavirus, Vero, read-out: EC50 EBOV
# [16] = Vesicular stomatitis virus, Vero, read-out: EC50 BDBV
# [17] = Zaire ebolavirus, Vero, read-out: EC50 Pseudotype Assays EBOV
# [18] = Vesicular stomatitis virus, Vero, read-out: EC50 Pseudotype Assays BDBV
smiles,measurement,setting,value
"CC12CC3CC(C)(C1)CC(C(=O)NCCN1CCCCC1)(C3)C2 [Example B12, 3,5-dimethyl-N-[2-(piperidin-1-yl)ethyl] adamantane-1-carboxamide]",EC50,[1]; [13],50000 nM
same,% cell viability at 5 μM,[2],90%
same,inhibition at 5 µM,[3],< 20%
"COc1ccc(N2CCN(CCCNC(=O)C34CC5CC(C3)CC(c3ccccc3)(C5)C4)CC2)cc1 [Example B6, N-{3-[4-(4-methoxyphenyl)piperazin-1-yl]propyl}-3-phenyl adamantane-1-carboxamide]",EC50,[1]; [13],920 nM
same,EC50,[4]; [14],1600 nM
same,% cell viability at 3 μM,[2],75%
same,% cell viability at 10 μM,[2],25%
CC12CC3CC(C(=O)N4CCNCC4)(C1)CC(c1ccccc1)(C3)C2 (stereo not drawn) [Example A71],CC50,[5]; CC50,4600 nM
same,EC50,[6],870 nM
same,EC50,[1]; [15],130 nM
same,EC50,[4]; [16],130 nM
same,Ebola Zaire SI (CC50/EC50),[7],>6
"O=C(CN1CCN(C(=O)C23CC4CC(C2)CC(c2ccccc2)(C4)C3)CC1)NC1CC1 [Example B10, N-cyclopropyl-2-{4-[(3-phenyladamantan-1-yl)carbonyl]piperazin-1-yl}acetamide]",EC50,[1]; [13],< 5000 nM
same,inhibition at 5 µM,[3],< 20%
O=C(NC1CCNCC1)C1C2CC3CC1CC(c1ccccc1)(C3)C2 (stereo not drawn) [Example A81],CC50,[5]; CC50,13900 nM
same,EC50,[6],1110 nM
same,Sudan Gulu SI (CC50/EC50),[8],266
same,EC50,[1]; [15],180 nM
same,EC50,[4]; [16],110 nM
same,Ebola Zaire SI (CC50/EC50),[7],48.9
same,EC50,[9],210 nM
"O=C(NC1CCN(Cc2ccccc2)CC1)C12CC3CC(CC(Cl)(C3)C1)C2 [Example B9, N-(1-benzylpiperidin-4-yl)-3-chloro adamantane-1-carboxamide]",EC50,[1]; [13],3800 nM
same,EC50,[4]; [14],3100 nM
same,% cell viability at 3 μM,[2],112%
same,% cell viability at 10 μM,[2],104%
"Cc1ccc(C23CC4CC(CC(C(=O)NC5CN6CCC5CC6)(C4)C2)C3)cc1 (stereo not drawn) [Example B11, N-{1-azabicyclo[2.2.2]octan-3-yl}-3-(4-methylphenyl)adamantane-1-carboxamide]",EC50,[1]; [13],< 5000 nM
same,% cell viability at 5 μM,[2],92%
same,inhibition at 5 µM,[3],< 20%
"CCN(CC)CCNc1nc(C23CC4CC(CC(C4)C2)C3)cs1 [Example D32, (2-{[4-(adamantan-1-yl)-1,3-thiazol-2-yl]amino}ethyl) diethylamine]",CC50,[5]; CC50,9000 nM
same,CC50,[5]; Cytotox CC50,> 10000 nM
same,EC50,[1]; [13],230 nM
same,EC50,[1]; [17],230 nM
same,EC50,[4]; [14],170 nM
same,EC50,[4]; [18],170 nM
same,MARV pseudotyped virus EC50 concentration (in words),[10],sub-micromolar
same,EC50,[10],610 nM
same,EC50,[3],> 10000 nM
same,EC50,[11],200 nM
same,EC50,[12],> 10000 nM
CC12CC3CC(C(=O)N4CCCN(CCCN5CCCC5)CC4)(C1)CC(c1ccccc1)(C3)C2 (stereo not drawn) [Example A43],CC50,[5]; CC50,1200 nM
same,EC50,[6],180 nM
same,Sudan Gulu SI (CC50/EC50),[8],104
same,EC50,[1]; [15],140 nM
same,EC50,[4]; [16],80 nM
same,Ebola Zaire SI (CC50/EC50),[7],36.3
same,EC50,[9],60 nM
"O=C(NC1CCN(Cc2ccccc2)CC1)C12CC3CC(C1)CC(c1ccccc1)(C3)C2 [Example B1, N-(1-benzylpiperidin-4-yl)-3-phenyladamantane-1-carboxamide]",EC50,[1]; [13],440 nM
same,EC50,[4]; [14],770 nM
same,% cell viability at 5 μM,[2],62%
same,inhibition at 5 µM,[3],< 20%
"Cc1ccc(C23CC4CC(CC(C(=O)N5CCN(C)CC5)(C4)C2)C3)cc1 [Example B14, 1-methyl-4-{[3-(4-methylphenyl)adamantan-1-yl]carbonyl} piperazine]",EC50,[1]; [13],5600 nM
same,% cell viability at 5 μM,[2],95%
same,inhibition at 5 µM,[3],< 20%
"O=C(N1CCN(c2ccccc2)CC1)C12CC3CC(C1)CC(c1ccccc1)(C3)C2 [Example B3, 1-phenyl-4-[(3-phenyladamantan-1-yl)carbonyl]piperazine]",EC50,[1]; [13],610 nM
same,EC50,[4]; [14],> 5000 nM
same,% cell viability at 5 μM,[2],83%
O=C(N1CCNCC1)C12CC3CC(C1)CC(c1ccccc1)(C3)C2 [Example A60],CC50,[5]; Cytotox CC50,> 10000 nM
same,EC50,[1]; [15],210 nM
same,EC50,[1]; [17],260 nM
same,EC50,[4]; [16],170 nM
same,EC50,[4]; [18],210 nM
same,EC50,[10],7900 nM
same,EC50,[3],> 10000 nM
same,EC50,[11],280 nM
same,EC50,[12],> 10000 nM
CC12CC3CC(C(=O)N[C@H]4CN5CCC4CC5)(C1)CC(c1ccccc1)(C3)C2 (stereo partly drawn) [Example A45],CC50,[5]; CC50,7200 nM
same,CC50,[5]; Cytotox CC50,> 10000 nM
same,EC50,[6],380 nM
same,EC50,[1]; [15],60 nM
same,EC50,[1]; [17],61 nM
same,EC50,[4]; [16],140 nM
same,EC50,[4]; [18],160 nM
same,MARV pseudotyped virus EC50 concentration (in words),[10],sub-micromolar
same,EC50,[10],290 nM
same,Ebola Zaire SI (CC50/EC50),[7],>28
same,EC50,[3],> 10000 nM
same,EC50,[11],120 nM
same,EC50,[12],> 10000 nM
"Cc1ccccc1-c1nnn(CC(=O)NC(C)C23CC4CC(CC(C4)C2)C3)n1 (stereo not drawn) [Example D42, N-[1-(adamantan-1-yl)ethyl]-2-[5-(2-methylphenyl)-2H-1,2,3,4-tetrazol-2-yl] acetamide]",EC50,[1]; read-out: EC50 EBOV,3200 nM
same,EC50,[4]; read-out: EC50 BDBV,3900 nM
same,CC50,[2],> 10000 nM
CN1CCN(NC(=O)C23CC4CC(C)(C2)CC(c2ccccc2)(C4)C3)CC1 (stereo not drawn) [Example A47],CC50,[5]; CC50,36200 nM
same,EC50,[6],710 nM
same,EC50,[1]; [15],70 nM
same,EC50,[4]; [16],170 nM
same,Ebola Zaire SI (CC50/EC50),[7],>8.5
"CC(C)(CNC(=O)C12CC3CC(C1)CC(c1ccccc1)(C3)C2)N1CCOCC1 [Example B4, N-[2-methyl-2-(morpholin-4-yl)propyl]-3-phenyladamantane-1-carboxamide]",EC50,[1]; [13],690 nM
same,EC50,[4]; [14],2690 nM
same,% cell viability at 3 μM,[2],100%
same,% cell viability at 10 μM,[2],114%
"O=C(N[C@@H]1CCNC1)C12CC3CC(C1)CC(c1ccccc1)(C3)C2 [Example B5, 3-phenyl-N-[(3R)-pyrrolidin-3-yl] adamantane-1-carboxamide]",EC50,[1]; [13],790 nM
same,EC50,[4]; [14],560 nM
same,% cell viability at 5 μM,[2],97%
same,inhibition at 5 µM,[3],< 20%
CN1CCC(NC(=O)C23CC4CC(C2)CC(c2ccccc2)(C4)C3)CC1 [Example A26],CC50,[5]; CC50,34000 nM
same,CC50,[5]; Cytotox CC50,> 10000 nM
same,EC50,[1]; [15],120 nM
same,EC50,[1]; [17],120 nM
same,EC50,[4]; [16],90 nM
same,EC50,[4]; [18],90 nM
same,EC50,[10],2700 nM
same,EC50,[3],> 10000 nM
same,EC50,[11],160 nM
same,EC50,[12],> 10000 nM
"CC(C)CN1CCOC(CNC(=O)C23CC4CC(C2)CC(c2ccccc2)(C4)C3)C1 (stereo not drawn) [Example B2, N-{[4-(2-methylpropyl)morpholin-2-yl]methyl}-3-phenyladamantane-1-carboxamide]",EC50,[1]; [13],570 nM
same,EC50,[4]; [14],930 nM
same,% cell viability at 3 μM,[2],100%
same,% cell viability at 10 μM,[2],97%
"Cc1ccc(C23CC4CC(CC(C(=O)N5CCN(Cc6ccccc6)CC5)(C4)C2)C3)cc1 [Example B13, 1-benzyl-4-{[3-(4-methylphenyl)adamantan-1-yl]carbonyl}piperazine]",EC50,[1]; [13],> 5000 nM
same,EC50,[4]; [14],> 5000 nM
same,inhibition at 5 µM,[3],< 20%
"O=C(NCC(c1cccs1)N1CCOCC1)C12CC3CC(C1)CC(c1ccccc1)(C3)C2 (stereo not drawn) [Example B8, N-[2-(morpholin-4-yl)-2-(thiophen-2-yl)ethyl]-3-phenyladamantane-1-carboxamide]",EC50,[1]; [13],3600 nM
same,EC50,[4]; [14],4600 nM
same,% cell viability at 3 μM,[2],103%
same,% cell viability at 10 μM,[2],90%
"O=C(NC1CCN(Cc2ccccc2)CC1)C12CC3CC(CC(C3)C1)C2 [Example B15, N-(1-benzylpiperidin-4-yl)adamantane-1-carboxamide]",EC50,[1]; [13],5900 nM
same,EC50,[4]; [14],3900 nM
same,% cell viability at 3 μM,[2],99%
same,% cell viability at 10 μM,[2],98%
"c1ccc(C23CC4CC(CC(CNC5CCNCC5)(C4)C2)C3)cc1 [Example C2, N-((3-phenyladamantan-1-yl)methyl)piperidin-4-amine]",CC50,[5]; CC50,3600 nM
same,EC50,[6],250 nM
same,Sudan Gulu SI (CC50/EC50),[8],109
same,EC50,[1]; [15],250 nM
same,EC50,[4]; [16],200 nM
same,Ebola Zaire SI (CC50/EC50),[7],25.3
same,EC50,[9],60 nM
"COc1ccc(C(CNC(=O)C23CC4CC(C2)CC(c2ccccc2)(C4)C3)N2CCOCC2)cc1 (stereo not drawn) [Example B7, N-[2-(4-methoxyphenyl)-2-(morpholin-4-yl)ethyl]-3-phenyl adamantane-1-carboxamide]",EC50,[1]; [13],3200 nM
same,EC50,[4]; [14],3100 nM
same,% cell viability at 3 μM,[2],112%
same,% cell viability at 10 μM,[2],95%
"CC1CCCC(C)N1CC(O)COCCC12CC3CC(CC(C3)C1)C2 (stereo not drawn) [Example D8, 1-[2-(adamantan-1-yl)ethoxy]-3-(2,6-dimethylpiperidin-1-yl) propan-2-ol]",CC50,[5]; CC50,3800 nM
same,CC50,[5]; Cytotox CC50,4000 nM
same,EC50,[1]; [13],210 nM
same,EC50,[1]; [17],210 nM
same,EC50,[4]; [14],80 nM
same,EC50,[4]; [18],80 nM
same,MARV pseudotyped virus EC50 concentration (in words),[10],sub-micromolar
same,EC50,[10],590 nM
same,EC50,[3],3800 nM
same,EC50,[11],300 nM
same,EC50,[12],4900 nM
